Experimental data as given in US5606037A, “Processes antineoplastic heteronaphthoquinones” (BioChem Pharma Inc., priority 1995, dated 1997).
Counter-ions that a name gives are not always drawn.

Experiments:
[1] = tested on: MCF-7/ADR; assay: In vitro cytotoxicity, MCF-7/ADR; format: cell-based
Description: (§1) The microculture tetrazolium assay was used to test in vitro cytotoxicity. This assay is described in Plumb, J. A. et al., 1989 Cancer Research 49, 4435-4440, which is herein incorporated by reference. The cytotoxicity of compounds towards tumor cells is measured in vitro using the assay. This assay method is based upon the ability of live, but not dead cells to reduce the yellow water soluble dye 3-(4,5-dimethylthiazol-2-yl)-2,5-diphenyltetrazolium bromide (MTT) to its water insoluble purple formazan product.
(§2) Cells are plated out in 100 μl of culture medium in the microtiter plates at a density of around 1,500-4,000 cells per well. The plates are incubated overnight to allow the cells to become adherent after which the test compound is added (100 μl of appropriate dilution per well). The cells are incubated with test compound at 37° C. for 48 h after which the compound is replaced with fresh medium. After a further 48 h incubation at 37° C., 50 μl of MTT solution (2 mg/ml) is added to each well. The plates are incubated in the dark for 4 h at 37° C. after which the medium is removed. The MTT formazan product is extracted from the cells by the addition of 200 μl DMSO followed by 50 μl of Sorensen's buffer. The plates are shaken briefly and the absorbance at 570 nm is read using a Molecular Devices UV max plate reader. […]

[2] = tested on: MCF-7; assay: In vitro cytotoxicity, MCF-7; format: cell-based
Description: as §1, §2

[3] = tested on: MAT-B; assay: In vitro cytotoxicity, MAT-B; format: cell-based; settings: read-out: IC50 MAT-B
Description: as §1, §2

[4] = tested on: MAT-B/ADR; assay: In vitro cytotoxicity, MAT-B/ADR; format: cell-based; settings: read-out: IC50 MAT-B/ADR
Description: as §1, §2

[5] = literature; cited from earlier work
[6] = tested on: T47D (Ductal carcinoma of breast); assay: In vitro cytotoxicity, microculture tetrazolium (MTT) assay, T47D; format: cell-based, Human; settings: 48 h with compound, further 48 h, Table 1
Summary of the method: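 Adherent cells (1,500-4,000/well) were exposed to compound in 1:3 dilutions from 100 μM to 1.7 nM, in quadruplicate, for 48 h at 37° C, followed by 48 h in fresh medium. MTT formazan was read at 570 nm, and data were fitted by four-parameter logistic on a 0-100% survival scale.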

[7] = tested on: HT 29 (Colon adenocarcinoma); assay: In vitro cytotoxicity, microculture tetrazolium (MTT) assay, HT29; format: cell-based, Human; settings: further 48 h, Table 1
Summary of the method: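 HT29 cells exposed to compound (1:3 series, 100 μM to 1.7 nM, quadruplicate) for 48 h at 37 °C, then 48 h in fresh medium. Viability by MTT reduction, formazan absorbance at 570 nm; four-parameter logistic fit on 0-100% survival scale.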

[8] = tested on: SKVLB (Ovarian; multidrug resistant); assay: In vitro cytotoxicity, microculture tetrazolium (MTT) assay, SKVLB; format: cell-based, Human; settings: for IC50: SKVLB multidrug resistant ovarian, 48 h with compound, further 48 h, MTT, Table 1
Summary of the method: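 Multidrug-resistant SKVLB ovarian cells, 1,500–4,000 per well, exposed to compound (1:3 dilutions, 100 μM to 1.7 nM, quadruplicate) for 48 h at 37 °C, then 48 h in fresh medium. Viability by MTT reduction, formazan read at 570 nm; four-parameter logistic fit on a 0–100% survival scale.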

[9] = tested on: SKOV3 (Ovarian adenocarcinoma); assay: In vitro cytotoxicity, microculture tetrazolium (MTT) assay, SKOV3; format: cell-based, Human; settings: for IC50: SKOV3 ovarian adenocarcinoma, 48 h with compound, further 48 h, MTT, Table 1
Summary of the method: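 Cells plated overnight, then exposed to compound (1:3 dilutions, 100 μM to 1.7 nM, quadruplicate) 48 h at 37 °C, followed by 48 h in fresh medium. MTT 4 h, formazan extracted in DMSO/Sorensen's buffer pH 10.5, A570; four-parameter logistic fit on 0–100% survival scale.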

[10] = tested on: Lox (Melanoma); assay: In vitro cytotoxicity, microculture tetrazolium (MTT) assay, LOX; format: cell-based, Human; settings: 48 h with compound, further 48 h, Table 1
Summary of the method: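 LOX melanoma cells, 1,500–4,000 per well, exposed to compound (1:3 dilutions, 100 μM to 1.7 nM) for 48 h at 37° C., then 48 h in fresh medium. MTT reduction read at 570 nm; four-parameter logistic fit normalized to 0–100% survival.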

[11] = tested on: VLB/OV3; assay: Resistance ratio of SKVLB over SKOV3 cytotoxicity (VLB/OV3); format: cell-based, Human; settings: ratio SKVLB to SKOV3; Table 1; 2880 min
Description: as §1
SKOV3 (Ovarian adenocarcinoma)--provided by Dr. V. Ling, Ontario Cancer Institute.
SKVLB (Ovarian; multidrug resistant)--Dr. V. Ling, Ontario Cancer Institute.
For each assay, doxorubicin is included as an inter-assay standard. This allows us to monitor the behaviour of the assay in general, and in particular, to check that the SKVLB line has maintained its resistant phenotype.
Cells are plated out in 100 μl of culture medium in the microtiter plates at a density of around 1,500-4,000 cells per well. The plates are incubated overnight to allow the cells to become adherent after which the test compound is added (100 μl of appropriate dilution per well). The cells are incubated with test compound at 37° C. for 48 h after which the compound is replaced with fresh medium. After a further 48 h incubation at 37° C., 50 μl of MTT solution (2 mg/ml) is added to each well. The plates are incubated in the dark for 4 h at 37° C. after which the medium is removed. The MTT formazan product is extracted from the cells by the addition of 200 μl DMSO followed by 50 μl of Sorensen's buffer. The plates are shaken briefly and the absorbance at 570 nm is read using a Molecular Devices UV max plate reader. Curves are fit to the MTT assay data using a four parameter logistic equation, and the data are normalized to fit a 0% to 100% survival scale.

[12] = literature; cited from earlier work; remark: listed apart in the source
[13] = Homo sapiens, HT-29, 48 h with compound

## COc1cccc2c1C(=O)c1c(O)c3c(c(O)c1C2=O)C[C@@](O)(C(=O)CO)C[C@@H]3O[C@H]1C[C@H](N)[C@H](O)[C@H](C)O1 [Adriamycin, reference compound]
[1]; Homo sapiens, NCI/ADR-RES, read-out: IC50 MCF-7/ADR
  IC50: 6.5 µM
[2]; Homo sapiens, MCF7, read-out: IC50 MCF-7
  IC50: 0.005 µM
[3]
  IC50: 0.0046 µM
[4]
  IC50: 2.5 µM

## COC(=O)C1CC2=C(C(=O)c3c(cc4ccccc4c3O)C2=O)C(O[C@H]2C[C@H](NC(=O)C(F)(F)F)[C@H](O)[C@H](C)O2)O1 (stereo partly drawn) [pyranoanthraquinone (H)]
[5]
  antitumor activity: found to possess antitumor activity

## CC(C)[C@H]1CC2=C(C(=O)c3ccccc3C2=O)[C@H](O[C@H]2C[C@H](NC(=O)C(F)(F)F)[C@H](O)[C@H](C)O2)O1 [BCH2052, (1'S, 1S, 3R)-5,10-dioxo-3-isopropyl-1-(2',3',6'-trideoxy-3'-trifluoroacetamido-L-lyxohexopyranose)-3,4,5,10-tetrahydro-1H-naphtho-[2,3-c]-pyran]
[6]; Homo sapiens
  IC50: 9.54 to 23.3 µM
[7]; [13]
  IC50: 10.6 to 15.4 µM
[8]; Homo sapiens
  IC50: 20.5 to 28.2 µM
[9]; Homo sapiens, SK-OV-3
  IC50: 5.4 to 7.01 µM
[10]; Homo sapiens
  IC50: 3.04 to 3.22 µM
[11]
  VLB/OV3: 3.78-4.02

## C[C@@H]1O[C@@H](CC(=O)O)CC2=C1C(=O)c1c(O)cccc1C2=O [nanaomycin A]
[12]
  antibacterial as well as antifungal activity: potent antibacterial as well as antifungal activity

## CO[C@@H]1O[C@@H](C(=O)O)CC2=C1C(=O)c1ccccc1C2=O (relative stereo) [BCH2045, (1,3-trans)-1-methoxy-3-carboxyl-5,10-dioxo-3,4,5,10-tetrahydro-1H-naphtho-[2,3-c]-pyran]
[6]; Homo sapiens
  IC50: 13 µM
[7]; [13]
  IC50: 1.11 µM
[8]; Homo sapiens
  IC50: 15 µM
[9]; Homo sapiens, SK-OV-3
  IC50: 5.3 µM
[10]; Homo sapiens
  IC50: 4.6 µM
[11]
  VLB/OV3: 3

## CC1OC2OC(=O)OC2C2=C1C(=O)c1c(O)cccc1C2=O (stereo not drawn) [kalafungin]
[12]
  antibacterial as well as antifungal activity: potent antibacterial as well as antifungal activity

## CC[C@@H]1CC2=C(C(=O)c3ccccc3C2=O)[C@@H](O[C@H]2C[C@H](NC(=O)C(F)(F)F)[C@H](O)[C@H](C)O2)O1 [BCH2026, (1'S, 1R, 3R)-5,10-dioxo-3-ethyl-1-(2',3',6'-trideoxy-3'-trifluoroacetamido-L-lyxohexopyranose)-3,4,5,10-tetrahydro-1H-naphtho-[2,3-c]pyran]
[6]; Homo sapiens
  IC50: 31.4 µM
[7]; [13]
  IC50: 22 µM
[8]; Homo sapiens
  IC50: > 100 µM
[9]; Homo sapiens, SK-OV-3
  IC50: 15 µM
[10]; Homo sapiens
  IC50: 2.12 µM
[11]
  VLB/OV3: > 7

## (1S, 2'S, 3R) and (1R, 2'S, 3S)-methyl-(1-[O-prolinol]-3,4,5,12-tetrahydronaphtho-[2,3-C]pyran-3-yl) ketone hydrochloride salt [BCH1658]
[6]
  IC50: 0.494 µM
[7]; 48 h with compound
  IC50: 0.661 µM
[8]
  IC50: 1.47 µM
[9]
  IC50: 0.233 µM
[10]
  IC50: 0.316 µM
[11]
  VLB/OV3: 6.31

## CC1O[C@H]2CC(=O)O[C@H]2C2=C1C(=O)c1c(O)c3c(c(O)c1C2=O)[C@H]1C[C@@H](O)[C@]3(O)[C@@H](C)O1 (stereo partly drawn) [Granaticin]
[5]
  antitumor activity: reported to show antitumor activity

## COC1OC(C(=O)NCCCN(C)C)=CC2=C1C(=O)c1ccccc1C2=O (stereo not drawn) [BCH2051, 1-Methoxy-5,10-dioxo-5,10-dihydro-1H-naphtho[2,3-c]pyran-3-[N-(3-dimethylamino-propyl)carboxamide] hydrochloride monohydrate]
[6]; Homo sapiens
  IC50: 0.0419 to 0.0685 µM
[7]; [13]
  IC50: 0.091 to 0.134 µM
[8]; Homo sapiens
  IC50: 0.0675 to 0.403 µM
[8]; SKVLB cell line
  multidrug resistance / effect in multidrug resistant cell line SKVLB: significantly avoiding multidrug resistance
[9]; Homo sapiens, SK-OV-3
  IC50: 0.0073 to 0.029 µM
[9]; in vitro, Tables 1 and 2
  in vitro antitumor potency: intense in vitro antitumor potency
[10]; Homo sapiens
  IC50: 0.0167 to 0.03 µM
[11]
  VLB/OV3: 9.3-14.14

## CC(=O)[C@H]1CC2=C(C(=O)c3ccccc3C2=O)[C@H](OC2C[C@H](NC(=O)C(F)(F)F)[C@H](O)[C@H](C)O2)O1 (stereo partly drawn) [BCH1146, (1'S,1S,3R)-Methyl (5,10-dioxo-1-(2',3',6'-trideoxy-3'-trifluoroacetamido-4'-hydroxy-L-lyxohexopyranose)-3,4,5,10-tetrahydronaphtho [2,3-C]pyran-3-yl) ketone]
[1]; breast cancer, MCF-7
  effect in sensitive versus adriamycin resistant cell line: nearly as effective in the sensitive and adriamycin resistant cell line
[2]; breast cancer, MCF-7
  potency relative to adriamycin: less potent than adriamycin

## CO[C@@H]1O[C@@H](C(=O)Nc2ccccc2)CC2=C1C(=O)c1ccccc1C2=O (relative stereo) [BCH2041, (1,3-trans)-anline-(1-methoxy-5,10-dioxo-3,4,5,10-tetrahydro-1H-naphtho-[2,3-c]-pyran)-3-carboxamide]
[6]; Homo sapiens
  IC50: 5.62 µM
[7]; [13]
  IC50: 1.9 µM
[8]; Homo sapiens
  IC50: 10 µM
[9]; Homo sapiens, SK-OV-3
  IC50: 2.14 µM
[10]; Homo sapiens
  IC50: 1.9 µM
[11]
  VLB/OV3: 5
